Read-outs that look alike come from different tables or passages of the source.
What was measured:
[1] = Stability in soybean millrun feed premix at 60° C.; assay type: physicochemical; conditions: soybean millrun feed premix; 60° C., one week, soybean millrun premix, 10% (w/w)
Description: These materials were then stored at 60° C. and analyzed for starting material at one week. The premix composition is given in Table 5 and the stability data in Table 6.

[2] = Stability at 60° C. in methanol-water, acetate buffer; assay type: physicochemical; conditions: methanol-water, acetate buffer
Description: Laidlomycin phenylcarbamate, laidlomycin isopopylcarbamate and two laidlomycin esters were prepared and their relative stability at 60° C. methanol-water, acetate buffer was determined. A complete list of the esters and carbamates which were tested under these conditions follows: […]

rumen fluid [3] = assay: Propionic acid production (VFA) in in vitro rumen fluid fermentation; assay type: cell-based, steer; set-up: Propionic acid production rate: unit not given here; conditions: 9 h
Description: (§1) Two separate fermentation models were used to evaluate effects of laidlomycin and laidlomycin phenylcarbamate upon volatile fatty acids (VFA) and lactic acid production. Test compounds were solubilized in absolute ethanol at concentrations of 1 mg/ml and were serially diluted twofold in absolute ethanol through six additional concentrations. Aliquots of 200 μl were transferred to 18×150 mm test tubes, which were used as incubation vessels, and the ethanol was evaporated.
(§2) For both fermentation models rumen fluid from a rumen-fistulated steer, consuming a 100% alfalfa hay diet, was obtained before the morning feeding. The fluid was strained through four layers of cheesecloth, mixed with an equal volume of CO2 -saturated buffer, and 10 ml was transferred to each of the incubation vessels. All tubes were fitted with gas-release stoppers under an atmosphere of CO2 and were incubated in a shaking waterbath at 39° C. […] This medium, designed to be microbiologically nonselective, encouraged VFA production with no accumulation of lactic acid. Buffer used to study lactic acid accumulation (table 1) contained 150 mmol of glucose/liter and had little buffering capacity. This medium favored growth of lactic acid-producing bacteria and allowed rapid production of lactic acid coupled with a precipitous drop in pH from pH 6.2 to less than pH 5 during the course of an incubation.
(§3) Fermentation was terminated at 9 h for the VFA fermentations and at 5.5 h for the lactic acid fermentations by addition of 2 ml of 25% metaphosphoric acid to the incubation tubes. Aliquots were frozen overnight, thawed, centrifuged at 30,000 × g for 10 min and the resulting supernatants analyzed for either L(+)-lactic acid or VFA. The L(+)-lactic acid was analyzed via a specific enzymatic assay in which the concentration of lactic acid in the fermentation broth was quantified by the increase in absorbance of light at 340 nm when nicotinamide adenine dinucleotide was reduced by lactic acid with the aid of L(+)-lactic dehydrogenase. VFA were analyzed via gas chromatography using a Varian chromatograph equipped with a flame ionization detector. Acids were separated on a glass column (0.64×182.9 cm) packed with 10% SP-1200/1% H3 PO4 on Chromosorb-WAW®, 80-100 mesh. This column was obtained pre-packed from Supelco, Inc., Bellefont, Pennsylvania. Chromatographic conditions included a column temperature of 145° C., an injector temperature of 190° C., a detector temperature of 190° C., a carrier gas flow of 45 ml/min and an injection volume of 1 μl.
(§4) Net production rates of all acids were calculated by subtracting the concentration of acids in the incubation fluid before incubation from the concentration determined in each tube after incubation. Molar proportions of acetic, propionic, and butyric acids produced were calculated by dividing the production rate of individual acids by the sum of the production rates of the three acids. Data were analyzed by analysis of variance (SAS, 1979). Comparisons (Duncan's multiple range test) of individual means were made when treatment effects (P<0.05) were indicated.

rumen fluid [4] = assay: L(+)-Lactic acid production in in vitro rumen fluid fermentation; assay type: cell-based, steer; set-up: Lactic acid production rate: unit not given here; conditions: 5.5 h
Description: as §1, §2, §3, §4

Gram positive bacteria = conditions: Journal of Antibiotics 1974, 1976; cited from earlier work
[5] = U.S. Pat. No. 3,794,732; cited from earlier work

`CCC(=O)OC(C(C)C(=O)O)C(C)C1OC2(CCC(C)(C3CCC(C)(C4OC(C5OC(O)(COC(=O)C(C)C)C(C)CC5C)CC4C)O3)O2)CC(O)C1C` (stereo not shown) [Laidlomycin isobutyrate, reference compound] showed a remaining at 168 h [1] of 70%.

Work on `CCC(=O)OCC1(O)OC(C2CC(C)C(C3(C)CCC(C4(C)CCC5(CC(O)C(C)C(C(C)C(OC(=O)CC)C(C)C(=O)O)O5)O4)O3)O2)C(C)CC1C` (stereo not shown) [Laidlomycin propionate, reference compound] yielded a half-life ([2]; 60° C., read-out: t1/2 (converted)) of 11.1 h and a remaining at 168 h [1] of 59%.

In the case of `CCC(=O)OC(C(C)C(=O)O)C(C)C1OC2(CCC(C)(C3CCC(C)(C4OC(C5OC(O)(CO)C(C)CC5C)CC4C)O3)O2)CC(O)C1C` (stereo not shown) [Laidlomycin, laidlomycin], the “Propionic acid production rate” value (rumen fluid [3]; 0.31 μg/ml) is reported as 21.1, the “Propionic acid production rate” value (rumen fluid [3]; 1.25 μg/ml) is reported as 20.9 and the “Propionic acid production rate” value (rumen fluid [3]; 2.50 μg/ml) is reported as 21.8. For the same compound, the “Propionic acid production rate” value (rumen fluid [3]; 5.00 μg/ml) was 22.2, the “Propionic acid production rate” value (rumen fluid [3]; 10.00 μg/ml) was 23.1 and the “Propionic acid production, percentage of control” value (rumen fluid [3]; 10.00 μg/ml) was 108 % of control. For the same compound, the “Propionic acid production rate” value (rumen fluid [3]; 20.00 μg/ml) was 23.2, the “Propionic acid production, percentage of control” value (rumen fluid [3]; 20.00 μg/ml) was 109 % of control and the activity at 0.31 µg/mL (rumen fluid [3]; 0.31 μg/ml, read-out: Propionic acid production, percentage of control) was 99%. It also gave an activity at 1.25 µg/mL (rumen fluid [3]; 1.25 μg/ml, read-out: Propionic acid production, percentage of control) of 98%, an activity at 2.5 µg/mL (rumen fluid [3]; 2.50 μg/ml, read-out: Propionic acid production, percentage of control) of 102% and an activity at 5 µg/mL (rumen fluid [3]; 5.00 μg/ml, read-out: Propionic acid production, percentage of control) of 104%. For the same compound, the activity at 10 µg/mL (rumen fluid [3]; 10.00 μg/ml, read-out: Propionic acid production, percentage of control) was 108%, the activity at 20 µg/mL (rumen fluid [3]; 20.00 μg/ml, read-out: Propionic acid production, percentage of control) was 109% and the activity at 0.62 µg/mL (rumen fluid [3]; read-out: Propionic acid production, percentage of control, 0.62 μg/ml, 9 h) was 98%. For the same compound, the “Lactic acid production rate” value (rumen fluid [4]; 0.31 μg/ml) was 28.3, the activity at 0.31 µg/mL (rumen fluid [4]; 0.31 μg/ml, read-out: Lactic acid production, percentage of control) was 101% and the “Lactic acid production rate” value (rumen fluid [4]; 0.62 μg/ml) was 30.7. For the same compound, the activity at 0.62 µg/mL (rumen fluid [4]; 0.62 μg/ml, read-out: Lactic acid production, percentage of control) was 110%, the “Lactic acid production rate” value (rumen fluid [4]; 1.25 μg/ml) was 26.4 and the activity at 1.25 µg/mL (rumen fluid [4]; 1.25 μg/ml, read-out: Lactic acid production, percentage of control) was 94%. The “Lactic acid production rate” value (rumen fluid [4]; 2.50 μg/ml) was 32.0, the activity at 2.5 µg/mL (rumen fluid [4]; 2.50 μg/ml, read-out: Lactic acid production, percentage of control) was 115% and the “Lactic acid production rate” value (rumen fluid [4]; 5.00 μg/ml) was 26.5. For the same compound, the activity at 5 µg/mL (rumen fluid [4]; 5.00 μg/ml, read-out: Lactic acid production, percentage of control) was 95%, the “Lactic acid production rate” value (rumen fluid [4]; 10.00 μg/ml) was 21.6 and the activity at 10 µg/mL (rumen fluid [4]; 10.00 μg/ml, read-out: Lactic acid production, percentage of control) was 77%. The “Lactic acid production rate” value (rumen fluid [4]; 20.00 μg/ml) was 22.7, the “Lactic acid production, percentage of control” value (rumen fluid [4]; 20.00 μg/ml) was 81 % of control and the activity at 20 µg/mL (rumen fluid [4]; 20.00 μg/ml, read-out: Lactic acid production, percentage of control) was 81%. The “Growth inhibition of Gram positive bacteria” value (Gram positive bacteria) was “inhibits the growth of Gram positive bacteria”.

In the case of `CC[C@@]1([C@@H]2O[C@@H]([C@H]3O[C@@](O)(CO)[C@H](C)C[C@@H]3C)C[C@@H]2C)CC[C@H]([C@]2(C)CC[C@]3(C[C@H](O)[C@@H](C)[C@@H]([C@@H](C)[C@@H](OC)[C@H](C)C(=O)O)O3)O2)O1` [Monensin], the “Increasing feed utilization in ruminants” value [5] is given as “useful in increasing feed utilization in ruminants”.

Compound `CCCC(=O)O` [butyrate] has a half-life [2] of 22.3 h.

“laidlomycin isopopylcarbamate [isopropylcarbamate]” gave a t1/2 ([2]; 60° C.) of 501.8 h.
